Tests used:
[1] = tested on: Diet-Induced Obese (DIO) mice; assay: Pilot study of BGE-105 in aged DIO mice treated with semaglutide (Example 1); type: in vivo
Source text: Endpoints and measurements used to assess effects included: • Body Weight, Clinical Evaluation & Body Condition Score; • Group Food Intake, Water Intake; • Fed Glucose; • Body composition by Echo-MRI; • Baseline and endpoint grid hang tests; and • Endpoint tissue harvest.
25-month-old (aged) C57BL/6 female mice were used in this study. Diet for 25-month-old C57BL/6 mice included lean control D12450B (10 kcal % fat), or a diet induced-obesity (DIO) diet D12492 (60 kcal % fat) (Research Diets, Inc.). The study duration was 37 days. Treatment started on Day 0 and ended on Day 35-36.
Semaglutide was purchased from MCE (Cat No. HY-114118/CS-0069903)
Mice from all Groups (1-5) were measured with fed glucose, and body weight and body composition for randomization.
Body weight, group food intake, group water intake, body composition and grid hang tests were measured and monitored during the study.
On the day of necropsy, blood plasma and tissue samples were collected.

Diet-Induced Obese Mice = assay: Combination of BAL-1480 and tirzepatide in obese mice (Example 6); type: in vivo
Source text: To measure the effect of another APJ agonist, BAL-1480, compound 13 as described by Narayanan et al. in J. Med. Chem. 2021, 64, 3006-3025, on weight loss or body composition in Diet-Induced Obese Mice by GLP-1 receptor agonist tirzepatide.
Measurement used and justifications include: body weight, food intake, water intake, non-fasted blood glucose, and body composition by Echo-MRI.
C57BL/6 obese male mice from Jax and housed to 9-months old were fed with a lean control diet D12450B (10 kcal % fat) and a diet-induced obesity (DIO) diet D12492 (60 kcal % fat) (Research Diets, Inc.).
Male DIO mice were acclimated to a single house cage for two weeks. Body weight, morning non-fasted blood glucose, and body composition were measured for randomization. Target DIO weight range at randomization 51.4-67.5 g. After randomization, mice were given treatment as the following groups (All groups were paired with relative dosing s.c. vehicle (20 mM citrate buffer at pH 7.0, 4 mL/kg) or drinking water with addition of 5 mM Sucralose (5 mM Sucralose, pH 3) to insure water consumption despite possible taste alterations from drug).
Study groups • 0. Lean ctrl, n=7 • 1. DIO+VEH (vehicle), n=7 • 2. DIO+BAL-1480 (0.25 g/L in drug water), n=7 • 3. DIO+BAL-1480 (1 g/L in drug water), n=7 • 4. DIO+tirzepatide (10 nmol/kg), n=7 • 5. DIO+tirzepatide (10 nmol/kg)+BAL-1480 (0.25 g/L in drug water), n=7 • 6. DIO+tirzepatide (10 nmol/kg)+BAL-1480 (1 g/L in drug water), n=7
(0) Lean control: age matched lean mice control (5 mM sucralose water+vehicle, s.c., every 3 days); (1) DIO+VEH: diet-induced obese mice treated with vehicle control (5 mM sucralose water, pH 3+vehicle, s.c., every 3 days); (2) DIO+BAL-1480 (0.25 g/L in drug water): diet-induced obese mice treated with BAL-1480 at 0.25 g/L; (3) DIO+BAL-1480 (1 g/L in drug water): diet-induced obese mice treated with BAL-1480 at 1 g/L; (4) DIO+tirzepatide (10 nmol/kg): diet-induced obese mice treated with tirzepatide at 10 nmol/kg, s.c., every 3 days+5 mM sucralose water, pH 3; (5) DIO+tirzepatide (10 nmol/kg)+BAL-1480 (0.25 g/L in drug water): diet-induced obese mice treated with tirzepatide at 10 nmol/kg in combination with BAL-1480 at 0.25 g/L; (6) DIO+tirzepatide (10 nmol/kg)+BAL-1480 (1 g/L in drug water): diet-induced obese mice treated with tirzepatide at 10 nmol/kg in combination with BAL-1480 at 1 g/L.
Tirzepatide (hydrochloride) was purchased from MCE (Cat No. HY—P1731B/CS-0107005). Mw=4849.91, 10 nmol/kg=0.0485 mg/kg, 4 mL/kg, drug concentration: 0.012 mg/mL in s.c. vehicle, every 3 days. BAL-1480 0.25 g/L or 1 g/L was prepared in drinking water with 5 mM Sucralose, pH 3.
Body weight, food intake, water intake, body composition and morning non-fasted blood glucose were measured during the entire study. After 20 days of treatment and measurement, mice were taken down to harvest tissues for further downstream analysis. On the day of necropsy, blood plasma and organ/tissue samples were collected. Tissue samples were weighed and processed for further tests. Terminal cardiac blood samples (Heparin plasma) were obtained.
Data were expressed as mean±SEM and statistically analyzed by 1-way or 2-way ANOVA

[2] = BAL-1480 monotherapy 1 g/L, both combination groups, vs tirzepatide monotherapy

| Compound | Muscle function, grid hang test (latency before mice fell from the grid) ([1]; semaglutide 100 nmol/kg, BGE-105 1.1 mg/mL, combination compared to either agent alone) | Weight of perigonadal fat at study endpoint ([1]; semaglutide 100 nmol/kg, BGE-105 1.1 mg/mL, combination loss statistically significant) | Quadriceps weight as a percentage of total body weight at study endpoint ([1]; semaglutide 100 nmol/kg, BGE-105 1.1 mg/mL, vs DIO control mice) | neutrophil gelatinase-associated lipocalin (NGAL) level at study endpoint ([1]; vs DIO control mice) | Fatty liver weight and fat tissue weights at terminal harvest (Diet-Induced Obese Mice; BAL-1480 1 g/L and combination groups vs tirzepatide monotherapy) | Muscle to body weight percentages at terminal harvest (Diet-Induced Obese Mice; BAL-1480 1 g/L and combination groups, to similar level as lean control mice) | Fat mass percentage (Diet-Induced Obese Mice; [2]) | Lean mass percentage (Diet-Induced Obese Mice; [2]) | Lean/fat ratio (Diet-Induced Obese Mice; [2]) | Absolute fat mass (Diet-Induced Obese Mice; BAL-1480 monotherapy 1 g/L, combinations tirzepatide 10 nmol/kg + BAL-1480 0.25 or 1 g/L, vs tirzepatide monotherapy) | Weight loss (Diet-Induced Obese Mice; obese mice, BAL-1480 0.25 and 1 g/L in drinking water) |
| --- | --- | --- | --- | --- | --- | --- | --- | --- | --- | --- | --- |
| semaglutide [reference compound] | increased muscle function | statistically insignificant loss in perigonadal fat | increased quadricep weight as a percentage of total body weight, but the increases did not achieve statistical significance | decreased plasma NGAL level |  |  |  |  |  |  |  |
| COc1cccc(OC)c1-c1cc(C(=O)N[C@@H](CCN2CCCCC2)CC(=O)NC2CCC2)nn1C1CCCC1 [BAL-1480] |  |  |  |  | reduced the fatty liver weight and fat tissue weights | dramatically increased the muscle to body weight percentages | significant decrease of fat mass percentage | significant increase of lean mass percentage | significant increase of lean/fat ratio | significant reduction of absolute fat mass | dose-dependent effect on weight loss |

Source: patent US20240366602A1, “COMBINATION THERAPY OF APELIN RECEPTOR AGONIST AND GLP-1 RECEPTOR AGONIST FOR TREATING A DISEASE OR CONDITION ASSOCIATED WITH WEIGHT GAIN” (BioAge Labs, Inc., priority 2023, published 2024)
